Reference: patent US20160295854A1, “COMPOSITION AND METHOD FOR EX-VIVO IMMUNOMODULATION AND/OR PRESERVATION OF ORGANS, METHODS AND USE” (UNIAO BRASILEIRA DE EDUCACAO E ASSISTENCIA , MANTENEDORA DA …, priority 2014, published 2016)

How the values were obtained:
STAT3 = test: p-STAT3 intracellular marking in BMDCs; format: cell-based, mice (Mus musculus); conditions: BMDCs, 30 μM inhibitor previous to Hsp70
Experimental: As positive control, the cells were stimulated with […] of phorbol myristate acetate (PMA) for 30 minutes. After the stimuli in the periods mentioned, the cells were fixed with Cytofix Buffer (BD Biosciences) for 10 minutes at 37° C. and permeated with Phosflow Perm Buffer III (BD Biosciences) for 30 minutes on ice. After such procedures, the cells were marked for p-ERK1/2 and p-STAT3.
For analyzing the recipients T cells, the cells were marked for CD4 (GK1.5), CD8a (53-6.7), Foxp3 (MF23), Ki67 (B56) achieved from BD Biosciences. […] The levels of phosphorylated ERK and STAT3 were determined using antibodies for p-ERK1/2 and p-STAT3 (BD Biosciences) in BMDCs previously fixed and permeablized. The cells were subsequently analyzed in the flow cytometer FACSCanto II (BD Biosciences) with the BD FACSDiva (BD Biosciences) program. The data achieved were analyzed with the Flowjo program (version 7.6.5, Tree Star).
The p-ERK expression was measured by flow cytometry. […] The p-STAT3 expression was measured by flow cytometry. […] After that, the IL-10 mRNA levels were measured by Real-time PCR and the concentration of this cytokine by flow cytometry, using the kit CBA Mouse Inflammation. […] After that, the MARCH-I mRNA levels were analyzed by Real-time PCR. […]

splenocytes = test: Epitopes mapping of T cells (splenocytes re-stimulated in vitro); format: cell-based, BALB/c mice; conditions: 5 μg/ml peptide or 60 μg/ml Hsp70, 24 h; for CD4+Foxp3+ (Tregs) cells percentage (FIG. 16 A): compared with DMSO
[1] = tested on: cutaneous allograft (B6 donor skin in BALB/c recipients); test: Murine model of cutaneous allograft, graft immersion-treatment; format: in vivo, mice (Mus musculus)
Excerpt: A method for treating grafts, including allografts, was developed by the inventors of the present invention. Thus, the method treats the grafts (that may be full organs) instead of recipient that will receive the graft, using as tool a classic murine model of skin transplantation and well established. Such method, to the light of the inventors, may be considered as new and inventive. The said model consists of a complete incompatibility of MHC molecules and was described by BILLINGHAM & MEDAWAR (1951).
BALB/c recipients, which express the MHC II I-A^d molecule, are anaesthetized and the dorsal stem hairs are removed. In the waxed area, 1 cm^2 of the skin was removed in each recipient mouse and the donor tail skin was sutured in the exposed area. The animals are maintained in individual cages and daily monitored. The graft rejection is confirmed by observing the cyanosis, erythema, erosion and cutaneous graft loss.
This model consists of a complete incompatibility of MHC molecules and was described by BILLINGHAM & MEDAWAR (1951). In this model, the donor mouse B6, which expresses the MHC II I-A^b molecule, is sacrificed. […] After this period, the grafts were sutured in the BALB/c recipients' back, who express the MHC II I-A^d molecule, and the rejection clinical progression is daily monitored.
After that, the grafts were sutured in the BALB/c (I-Ad) animals' back. The animals were daily monitored. ***, p<0.0001. n=22-24 mice per group. The results achieved putting the seven independent experiments together.
After this, these grafts were sutured in BALB/c recipients WT and their rejection were daily monitored.
After this, the grafts were sutured in the BALB/c (I-Ad) animals' back. The animals were daily monitored. *, p<0.05. n=4 mice per group.

MARCH-I = MARCH-I mRNA in DCs by real time PCR; format: cell-based, mice (Mus musculus); conditions: DCs from IL-10 knockout animals, 24 h; compared with DCs WT
Experimental: The supernatants were collected and used for analyzing cytokine. The cells were further treated with 20 ng/ml of Rapamycin (Cell Signaling), 1 μg/ml of Cyclosporine A (Roche) or 20 ng/ml of IL-10 recombinant murine (R&D System) for 24 h and the total RNA was removed.
The total RNA was isolated from the DCs treated using the kit RNAeasy (Qiagen), according to the manufacturer instructions. The total purified RNA concentration was determined with the kit Qubit® RNA Assay Kit (Invitrogen), read in the Qubit® Fluorometer (Invitrogen). 50 ng of the RNA had reverse transcriptase with 100 U of Sensiscript (Qiagen). DNA concentrations were determined with the kit Qubit® dsDNA HS Assay (Invitrogen), read in the Qubit® Fluorometer (Invitrogen). In a final volume of 10 μL, 8 ng of cDNA were applied using some assays Taqman® Gene Expression (Applied Biosystems): IL10 (Mm00439614_m1), March1 (Mm00613524_m1) and β-actin (4352933E), according to the manufacturer recommendations.
The quantitative real time PCR was performed in the instrument StepOne™ Real-Time PCR System (Applied Biosystems). The relative levels of mRNA were calculated according to the comparative method of Ct, described by […] & LIVAK (2008). The β-actin constituent gene was used as setter. Non-treated DCs served as reference for OVA or Hsp70-treated DCs.
After that, IL-10 mRNA levels were analyzed by Real-time PCR. The β-actin was used as a setter. The IL-10 concentration was measured in the cultures supernatant by flow cytometry. […] (C) As in A, however the MARCH-I mRNA levels were analyzed by Real-time PCR. […] DCs IL-10 KO were also treated with Recombinant IL-10. All treatments were performed for 24 h and MARCH-I mRNA levels were analyzed by Real-time PCR. […] After this period, grafts were sutured in the BALB/c animals' back and the acceptance was daily monitored. Graphs expressed on average ±SEM. *, p<0.05; **, p<0.01; ***, […]. n=3-5 mice per group. Representative results of 3 independent experiments.
After this period, the MARCH-I expression increase was analyzed by Real-time PCR.

[2] = tested on: cutaneous allograft (B6 donor skin in BALB/c recipients); test: Cutaneous allograft model, graft immersion followed by topic application; format: in vivo, mice (Mus musculus); conditions: immersion plus 7 days of topic application (group '- 7 days')
Excerpt: That is, animals that received grafts treated with Hsp70 receive the local application of a Hsp70 solution and the same for OVA.
After this, the grafts were sutured in BALB/c (I-A^d) animals' back. […] The animals were daily monitored. (A) Schematic representation of the treatment strategy used in the experiment. (B) Photographic record of the clinical progression of the acute rejection in groups Hsp70 and OVA. […] Data achieved from previous experiments.

COc1cccc(-c2cc(=O)c3ccccc3o2)c1N [PD98059, reference compound]
STAT3 activation against the stimulus with Hsp70 after ERK inhibition (FIG. 13 E) (STAT3): removed the STAT3 activation

KYTAPEISARILMKL (Heat Shock Protein HSP70) [Peptide 5]
CD4+Foxp3+ (Tregs) cells percentage (FIG. 16 A) (splenocytes): increase in the Tregs production

VGGSTRMPAVTDLVK [Peptide 2]
IL-10 production by splenocytes (FIG. 16 B) (splenocytes): small increase
CD4+Foxp3+ (Tregs) cells percentage (FIG. 16 A) (splenocytes): quite significant increase
graft acceptance after immersion with Hsp70 or peptides (FIG. 17) ([1]; 60 μg/ml Hsp70 or 15 μg/ml peptide, 60 minutes at 4° C., compared to OVA peptide and peptide 5): strong tendency in lengthen the graft acceptance

B1: recombinant murine IL-10: IL-10 recombinant murine (R&D System), positive control (protein, UniProt P18893 19-178, looked up)
Interleukin-10: SRGQYSREDNNCTHFPVGQSHMLLELRTAFSQVKTFFQTKDQLDNILLTDSLMQDFKGYLGCQALSEMIQFYLVEVMPQAEKHGPEIKEHLNSLGEKLKTLRMRLRRCHRFLPCENKSKAVEQVKSDFNKLQDQGVYKAMNEFDIFINCIEAYMMIKMKS
MARCH-I mRNA levels in DCs IL-10 KO (FIG. 11 D) (MARCH-I): reestablished partially

B2: OVA: egg albumin (OVA), control protein (protein, UniProt P01012 2-386, looked up)
Ovalbumin: GSIGAASMEFCFDVFKELKVHHANENIFYCPIAIMSALAMVYLGAKDSTRTQINKVVRFDKLPGFGDSIEAQCGTSVNVHSSLRDILNQITKPNDVYSFSLASRLYAEERYPILPEYLQCVKELYRGGLEPINFQTAADQARELINSWVESQTNGIIRNVLQPSSVDSQTAMVLVNAIVFKGLWEKAFKDEDTQAMPFRVTEQESKPVQMMYQIGLFRVASMASEKMKILELPFASGTMSMLVLLPDEVSGLEQLESIINFEKLTEWTSSNVMEERKIKVYLPRMKMEEKYNLTSVLMAMGITDVFSSSANLSGISSAESLKISQAVHAAHAEINEAGREVVGSAEAGVDAASVSEEFRADHPFLFCIKHIATNAVLFFGRCVSP
Survival median [2]: 14.0 days
Survival ([2]; individual mice): 16 days
Survival average ([1]; graft immersed in 60 μg/mL for 60 minutes, seven independent experiments): 14.0 days
